The source of these data is patent publication US10508085B2, “Compounds and methods for IDO and TDO modulation, and indications therefor” (Plexxikon Inc., priority 2016, dated 2019).

Experiment [1] addresses T1, Human Indoleamine 2,3-dioxygenase (IDO) (Homo sapiens, UniProt P14902).
T1 construct: His tag (N); made in house; host or cells: E. coli
Kind of experiment: Human IDO enzymatic assay (kynurenine level). The class given is biochemical. The following applies: 6 nM IDO, 10 μM L-Trp; geometric mean; read-out: IDO1 GMean: IC50 (μM) (Biochemical Assay). In outline:
(§1)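 N-terminally His-tagged enzymes expressed in E. coli were run in 50 mM sodium phosphate pH 6.5 with 10 mM ascorbate, catalase and Tween 20. IDO: 6 nM enzyme, 10 μM L-Trp, 5 μM methylene blue, 20 min RT. TDO: 1 nM enzyme, 350 μM L-Trp, 0.4 μM methylene blue, 70 min RT.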

Experiment [2] addresses T2, Human Tryptophan 2,3-dioxygenase (TDO) (Homo sapiens, UniProt P48775).
T2 construct: His tag (N); made in house; host or cells: E. coli
The experiment can be described thus: Human TDO enzymatic assay (kynurenine level). The following applies: 1 nM TDO, 350 μM L-Trp; geometric mean; read-out: TDO GMean: IC50 (μM) (Biochemical Assay). The format is biochemical. In outline: as §1

Experiment [3] addresses T3, human IDO (IDO1-expressing HEK293 cells) (Homo sapiens, UniProt P14902).
T3 construct: expressed in transfected cells
The experiment can be described thus: Cell based kynurenine assay, IDO1-expressing HEK293 cell clones. The settings on record: IDO1-expressing HEK293 cells, 24 hours incubation; geometric mean; read-out: HEK293 IDO1 Kynurenine GMean IC50 (μM) (Cellular Assay). An outline of the steps: (§2)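 Stably transfected HEK293 clones expressing human IDO1 or TDO (CMV promoter) were seeded at 2.5×10^4 cells/well and treated with serially diluted compounds for 24 h. Supernatant kynurenine was then measured, and % inhibition versus DMSO-treated cell and media-only controls was fitted by nonlinear regression to give IC50.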

Experiment [4] addresses T4, human TDO (TDO-expressing HEK293 cells) (Homo sapiens, UniProt P48775).
T4 construct: expressed in transfected cells
The experiment can be described thus: Cell based kynurenine assay, TDO-expressing HEK293 cell clones. The settings on record: TDO-expressing HEK293 cells, 24 hours incubation; geometric mean; read-out: HEK293 TDO Kynurenine GMean IC50 (μM) (Cellular Assay). An outline of the steps:
as §2

T1 sequence (P14902 whole entry): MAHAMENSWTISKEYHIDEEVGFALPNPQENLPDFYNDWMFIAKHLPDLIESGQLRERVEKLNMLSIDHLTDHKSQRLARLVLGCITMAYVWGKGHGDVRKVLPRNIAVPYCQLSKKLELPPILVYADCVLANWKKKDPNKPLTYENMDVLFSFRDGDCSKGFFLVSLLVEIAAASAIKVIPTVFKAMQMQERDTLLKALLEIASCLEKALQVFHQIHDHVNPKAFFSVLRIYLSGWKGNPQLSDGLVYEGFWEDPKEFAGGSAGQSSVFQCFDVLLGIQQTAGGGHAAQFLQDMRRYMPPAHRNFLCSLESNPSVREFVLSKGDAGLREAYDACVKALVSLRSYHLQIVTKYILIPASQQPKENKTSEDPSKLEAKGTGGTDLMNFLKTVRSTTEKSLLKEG
T3 sequence (P14902 whole entry): as above
T2 sequence (P48775 whole entry): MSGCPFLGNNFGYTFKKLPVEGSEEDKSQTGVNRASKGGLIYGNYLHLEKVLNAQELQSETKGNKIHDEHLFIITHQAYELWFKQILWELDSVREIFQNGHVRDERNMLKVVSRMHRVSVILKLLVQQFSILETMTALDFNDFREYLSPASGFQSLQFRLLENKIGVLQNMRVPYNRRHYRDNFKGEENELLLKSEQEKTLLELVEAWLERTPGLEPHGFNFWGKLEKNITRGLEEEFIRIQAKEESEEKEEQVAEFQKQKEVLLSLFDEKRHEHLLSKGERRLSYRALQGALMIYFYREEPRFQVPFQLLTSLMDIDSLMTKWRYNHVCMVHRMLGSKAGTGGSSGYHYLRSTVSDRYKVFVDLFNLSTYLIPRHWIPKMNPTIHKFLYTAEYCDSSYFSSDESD
T4 sequence (P48775 whole entry): as above

As for `CS(=O)(=O)N1CC(C(O)c2cc(Cl)cc3cn[nH]c23)C1` (stereo not drawn) [Compound P-0226, (5-chloro-1H-indazol-7-yl)(1-(methylsulfonyl)azetidin-3-yl)methanol], the half-maximal inhibitory concentration (IC50) (usually the point on the concentration scale where inhibition reaches its midpoint) is 0.0001 to 10 µM in experiment [1], 0.0001 to 10 µM in experiment [2], 0.0001 to 10 µM in experiment [3] and greater than 10 µM in experiment [4].

As for `OC(c1cc(Cl)cc2cn[nH]c12)C12CCC(F)(CC1)CC2` (stereo not drawn) [Compound P-0227, (5-chloro-1H-indazol-7-yl)(4-fluorobicyclo[2.2.2]octan-1-yl)methanol], the IC50 in experiment [1], in experiment [2], in experiment [3] and in experiment [4] was 0.0001 to 10 µM in each case.

As to `CC1(C(O)c2cc(Cl)cc3cn[nH]c23)CC2CC2C1` (stereo not drawn) [Compound P-0228, (5-chloro-1H-indazol-7-yl)(3-methylbicyclo[3.1.0]hexan-3-yl)methanol], the concentration for half-maximal inhibition (IC50) in experiment [1], in experiment [2], in experiment [3] and in experiment [4] was 0.0001 to 10 µM in each case.

`OC(c1cc(Cl)cc2cn[nH]c12)C12CCC(CC1)C2` (stereo not drawn) [Compound P-0229, bicyclo[2.2.1]heptan-1-yl(5-chloro-1H-indazol-7-yl)methanol]: the concentration for half-maximal inhibition (IC50) in experiment [1], in experiment [2], in experiment [3] and in experiment [4] was 0.0001 to 10 µM each time.

Regarding `CN(C)C(C)(C)C(O)c1cc(Cl)cc2cn[nH]c12` (stereo not drawn) [Compound P-0230, 1-(5-chloro-1H-indazol-7-yl)-2-(dimethylamino)-2-methylpropan-1-ol], the IC50 was 10 to 100 µM in experiment [1], 10 to 100 µM in experiment [2], greater than 10 µM in experiment [3] and greater than 10 µM in experiment [4].

For `CC(C)(C(O)c1cc(Cl)cc2cn[nH]c12)N1CCCC1` (stereo not drawn) [Compound P-0231, 1-(5-chloro-1H-indazol-7-yl)-2-methyl-2-(pyrrolidin-1-yl)propan-1-ol], the IC50 is 100 to 200 µM in experiment [1], 10 to 100 µM in experiment [2], greater than 10 µM in experiment [3] and greater than 10 µM in experiment [4].

In the case of `CC(C)(C1CCOCC1)C(O)c1c(F)c(Cl)cc2cn[nH]c12` (stereo not drawn) [Compound P-0232, 1-(5-chloro-6-fluoro-1H-indazol-7-yl)-2-methyl-2-(tetrahydro-2H-pyran-4-yl)propan-1-ol], the IC50 in experiment [1], in experiment [2], in experiment [3] and in experiment [4] was 0.0001 to 10 µM throughout.

As to `CC(C)(N)CC(O)c1cc(Cl)cc2cn[nH]c12` (stereo not drawn) [Compound P-0233, 3-amino-1-(5-chloro-1H-indazol-7-yl)-3-methylbutan-1-ol], the IC50 was 10 to 100 µM in experiment [1], 10 to 100 µM in experiment [2], greater than 10 µM in experiment [3] and greater than 10 µM in experiment [4].

Regarding `Cc1ccc2cn[nH]c2c1C(O)C(C)(C)C1CCOCC1` (stereo not drawn) [Compound P-0234, 2-methyl-1-(6-methyl-1H-indazol-7-yl)-2-(tetrahydro-2H-pyran-4-yl)propan-1-ol], the IC50 in experiment [1], in experiment [2], in experiment [3] and in experiment [4] was 0.0001 to 10 µM throughout.

For `OC(c1c(F)c(Cl)cc2cn[nH]c12)C1(C2CCOCC2)CC1` (stereo not drawn) [Compound P-0235, (5-chloro-6-fluoro-1H-indazol-7-yl)(1-(tetrahydro-2H-pyran-4-yl)cyclopropyl)methanol], the 50% inhibitory concentration (IC50) in experiment [1], in experiment [2], in experiment [3] and in experiment [4] was 0.0001 to 10 µM throughout.

Take `CC1(C(O)c2cc(Cl)cc3cn[nH]c23)CCOCC1` (stereo not drawn) [Compound P-0236, (5-chloro-1H-indazol-7-yl)(4-methyltetrahydro-2H-pyran-4-yl)methanol]: the IC50 in experiment [1], in experiment [2], in experiment [3] and in experiment [4] was 0.0001 to 10 µM in each case.

Take `OC(c1c(Cl)c(Cl)cc2cn[nH]c12)C1CCC1` (stereo not drawn) [Compound P-0237, cyclobutyl(5,6-dichloro-1H-indazol-7-yl)methanol]: the 50% inhibitory concentration (IC50) in experiment [1], in experiment [2], in experiment [3] and in experiment [4] was 0.0001 to 10 µM each time.

As for `OC(c1c(Cl)c(Cl)cc2cn[nH]c12)C1(C2CCCCC2)CC1` (stereo not drawn) [Compound P-0238, (1-cyclohexylcyclopropyl)(5,6-dichloro-1H-indazol-7-yl)methanol], the half-maximal inhibitory concentration (IC50) in experiment [1], in experiment [2], in experiment [3] and in experiment [4] was 0.0001 to 10 µM in each case.

Consider `CC(C)(C)C(O)c1c(Cl)c(Cl)cc2cn[nH]c12` (stereo not drawn) [Compound P-0239, 1-(5,6-dichloro-1H-indazol-7-yl)-2,2-dimethylpropan-1-ol], for which the IC50 in experiment [1], in experiment [2], in experiment [3] and in experiment [4] was 0.0001 to 10 µM in each case.

As to `OC(c1cc(Cl)cc2cn[nH]c12)C1CC2CCC1C2` (stereo not drawn) [Compound P-0240, bicyclo[2.2.1]heptan-2-yl(5-chloro-1H-indazol-7-yl)methanol], the IC50 in experiment [1], in experiment [2], in experiment [3] and in experiment [4] was 0.0001 to 10 µM in each case.

Take `CC1(C)OC(C)(C)C12CC(O)(c1cc(Cl)cc3cn[nH]c13)C2` [Compound P-0243, 6-(5-chloro-1H-indazol-7-yl)-1,1,3,3-tetramethyl-2-oxaspiro[3.3]heptan-6-ol]: the half-inhibitory concentration (IC50) in experiment [1], in experiment [2], in experiment [3] and in experiment [4] was 0.0001 to 10 µM in each case.

For the compound `[2H]C(O)(c1cc(Cl)cc2cn[nH]c12)C(C)(C)C1CCOCC1` (stereo not drawn) [Compound P-0244, 1-(5-chloro-1H-indazol-7-yl)-2-methyl-2-(tetrahydro-2H-pyran-4-yl)propan-1-d-1-ol], the 50% inhibitory concentration (IC50) in experiment [1], in experiment [2], in experiment [3] and in experiment [4] was 0.0001 to 10 µM in each case.

For `OC(c1c(F)c(Cl)c(F)c2cn[nH]c12)C1CCC1` (stereo not drawn) [Compound P-0246, (5-chloro-4,6-difluoro-1H-indazol-7-yl)(cyclobutyl)methanol], the IC50 in experiment [1], in experiment [2], in experiment [3] and in experiment [4] was 0.0001 to 10 µM each time.

As to `OC(c1c(F)c(Cl)c(F)c2cn[nH]c12)C1(C2CCCCC2)CC1` (stereo not drawn) [Compound P-0247, (5-chloro-4,6-difluoro-1H-indazol-7-yl)(1-cyclohexylcyclopropyl)methanol], the IC50 in experiment [1], in experiment [2], in experiment [3] and in experiment [4] was 0.0001 to 10 µM throughout.

With `CC(C)(C)C(O)c1c(F)c(Cl)c(F)c2cn[nH]c12` (stereo not drawn) [Compound P-0248, 1-(5-chloro-4,6-difluoro-1H-indazol-7-yl)-2,2-dimethylpropan-1-ol], the IC50 in experiment [1] is 0.0001 to 10 µM; in experiment [2], 0.0001 to 10 µM; in experiment [3] it was 0.0001 to 10 µM; in experiment [4], greater than 10 µM.

As to `OC1(c2c(F)c(Cl)c(F)c3cn[nH]c23)CC2(C1)C1CCCC2CCC1` (stereo not drawn) [Compound P-0249, (1s,5s)-3′-(5-chloro-4,6-difluoro-1H-indazol-7-yl)spiro[bicyclo[3.3.1]nonane-9,1′-cyclobutan]-3′-ol], the IC50 in experiment [1] was 0.0001 to 10 µM; in experiment [2], 0.0001 to 10 µM; in experiment [3], 0.0001 to 10 µM; in experiment [4], greater than 10 µM.
